# Several values for one entry are separate records, joined by “and”; a condition that tells them apart may be missing. Equal values may be shown once.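 Assay format: 96-well plates, 48-hour exposure. GI50 = concentration required for 50% inhibition of growth. Definition used: TGI = concentration required for complete inhibition of growth.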
# How the values were obtained:
# Test in all cases: DTP human tumour cell line panel, 48 h
# K-562 leukemia = tested on: K-562 leukemia
# M19-MEL melanoma = tested on: M19-MEL melanoma
# A549 NSCLC = tested on: A549 NSCLC
# HOP-18 NSCLC = tested on: HOP-18 NSCLC
# DMS 114 small cell lung = tested on: DMS 114 small cell lung
# SNB-75 CNS = tested on: SNB-75 CNS
# HL-60(TB) leukemia = tested on: HL-60(TB) leukemia
# SF-295 CNS = tested on: SF-295 CNS
# M14 melanoma = tested on: M14 melanoma
# LXFL 529 NSCLC = tested on: LXFL 529 NSCLC
# UACC-62 melanoma = tested on: UACC-62 melanoma
# HCT-116 colon = tested on: HCT-116 colon
# OVCAR-4 ovarian = tested on: OVCAR-4 ovarian
# RXF 393 renal = tested on: RXF 393 renal
# CCRF-CEM leukemia = tested on: CCRF-CEM leukemia
# DMS 273 small cell lung = tested on: DMS 273 small cell lung
# COLO 205 colon = tested on: COLO 205 colon
# IGROV1 ovarian = tested on: IGROV1 ovarian
# ACHN renal = tested on: ACHN renal
# KM12 colon = tested on: KM12 colon
# U251 CNS = tested on: U251 CNS
# KM20L2 colon = tested on: KM20L2 colon
# NCI-H460 lung = tested on: NCI-H460 lung
# UACC-257 melanoma = tested on: UACC-257 melanoma
# NCI-H522 lung = tested on: NCI-H522 lung
# SK-MEL-28 melanoma = tested on: SK-MEL-28 melanoma
# EKVX NSCLC = tested on: EKVX NSCLC
# SN12C renal = tested on: SN12C renal
# SW-620 colon = tested on: SW-620 colon
# 786-0 renal = tested on: 786-0 renal
# NCI-H23 lung = tested on: NCI-H23 lung
# LOX IMVI melanoma = tested on: LOX IMVI melanoma
# SF-268 CNS = tested on: SF-268 CNS
# SF-539 CNS = tested on: SF-539 CNS
# A498 renal = tested on: A498 renal
# HOP-92 NSCLC = tested on: HOP-92 NSCLC
# HCT-15 colon = tested on: HCT-15 colon
# DLD-1 colon = tested on: DLD-1 colon
# SNB-19 CNS = tested on: SNB-19 CNS
# MOLT-4 leukemia = tested on: MOLT-4 leukemia
# HT29 colon = tested on: HT29 colon
# OVCAR-5 ovarian = tested on: OVCAR-5 ovarian
# HOP-62 NSCLC = tested on: HOP-62 NSCLC
# OVCAR-8 ovarian = tested on: OVCAR-8 ovarian
# SK-MEL-5 melanoma = tested on: SK-MEL-5 melanoma
# NCI-H226 lung = tested on: NCI-H226 lung
# SR leukemia = tested on: SR leukemia
# RPMI-8226 leukemia = tested on: RPMI-8226 leukemia
# BT-549 breast = tested on: BT-549 breast
# CAKI-1 renal = tested on: CAKI-1 renal
# TK-10 renal = tested on: TK-10 renal
# MALME-3M melanoma = tested on: MALME-3M melanoma
# SK-MEL-2 melanoma = tested on: SK-MEL-2 melanoma
# PC-3 prostate = tested on: PC-3 prostate
# MDA-N = tested on: MDA-N
# SNB-78 CNS = tested on: SNB-78 CNS
# MDA-MB-231 breast = tested on: MDA-MB-231 breast
# UO-31 renal = tested on: UO-31 renal
# HCC-2998 colon = tested on: HCC-2998 colon
# T-47D breast = tested on: T-47D breast
# OVCAR-3 ovarian = tested on: OVCAR-3 ovarian
# MCF7 breast = tested on: MCF7 breast
# HS 578T breast = tested on: HS 578T breast
# SK-OV-3 ovarian = tested on: SK-OV-3 ovarian
# NCI/ADR-RES ovarian = tested on: NCI/ADR-RES ovarian
# DU-145 prostate = tested on: DU-145 prostate
compound,measurement,setting,value
CCN=C1Nc2ccccc2-n2c(nn3nc4ccccc4c23)N1CC,TGI,K-562 leukemia,> 100 µM
same,TGI,M19-MEL melanoma,> 100 µM
same,TGI,A549 NSCLC,> 100 µM
same,TGI,HOP-18 NSCLC,> 100 µM
same,TGI,DMS 114 small cell lung,> 100 µM
same,TGI,SNB-75 CNS,> 100 µM
same,TGI,HL-60(TB) leukemia,> 100 µM
same,TGI,SF-295 CNS,> 100 µM
same,TGI,M14 melanoma,> 100 µM
same,TGI,LXFL 529 NSCLC,> 100 µM
same,TGI,UACC-62 melanoma,> 100 µM
same,TGI,HCT-116 colon,> 100 µM
same,TGI,OVCAR-4 ovarian,> 100 µM
same,TGI,RXF 393 renal,> 100 µM
same,TGI,CCRF-CEM leukemia,> 100 µM
same,TGI,DMS 273 small cell lung,> 100 µM
same,TGI,COLO 205 colon,> 100 µM
same,TGI,IGROV1 ovarian,> 100 µM
same,TGI,ACHN renal,> 100 µM
same,TGI,KM12 colon,> 100 µM
same,TGI,U251 CNS,> 100 µM
same,TGI,KM20L2 colon,> 100 µM
same,TGI,NCI-H460 lung,> 100 µM
same,TGI,UACC-257 melanoma,> 100 µM
same,TGI,NCI-H522 lung,> 100 µM
same,TGI,SK-MEL-28 melanoma,> 100 µM
same,TGI,EKVX NSCLC,> 100 µM
same,TGI,SN12C renal,> 100 µM
same,TGI,SW-620 colon,> 100 µM
same,TGI,786-0 renal,> 100 µM
same,TGI,NCI-H23 lung,> 100 µM
same,TGI,LOX IMVI melanoma,> 100 µM
same,TGI,SF-268 CNS,> 100 µM
same,TGI,SF-539 CNS,> 100 µM
same,TGI,A498 renal,> 100 µM
same,TGI,HOP-92 NSCLC,> 100 µM
same,TGI,HCT-15 colon,> 100 µM
same,TGI,DLD-1 colon,> 100 µM
same,TGI,SNB-19 CNS,> 100 µM
same,TGI,MOLT-4 leukemia,> 100 µM
same,TGI,HT29 colon,> 100 µM
same,TGI,OVCAR-5 ovarian,> 100 µM
same,TGI,HOP-62 NSCLC,> 100 µM
same,TGI,OVCAR-8 ovarian,> 100 µM
same,TGI,SK-MEL-5 melanoma,> 100 µM
same,TGI,NCI-H226 lung,> 100 µM
same,TGI,SR leukemia,> 100 µM
same,TGI,RPMI-8226 leukemia,> 100 µM
COc1ccc(NCc2cc(OC)c(OC)c(OC)c2)cc1,GI50,K-562 leukemia,0.0444 µM and 0.114 µM
same,TGI,K-562 leukemia,> 100 µM
same,TGI,A549 NSCLC,> 100 µM
same,GI50,HOP-18 NSCLC,> 43.3 µM
same,TGI,HOP-18 NSCLC,> 100 µM
same,TGI,DMS 114 small cell lung,0.833 µM and 0.654 µM
same,GI50,SNB-75 CNS,0.513 µM and 0.262 µM
same,TGI,SNB-75 CNS,> 100 µM
same,TGI,M14 melanoma,> 100 µM and 15.4 µM
same,TGI,LXFL 529 NSCLC,> 100 µM
same,GI50,UACC-62 melanoma,0.308 µM
same,TGI,UACC-62 melanoma,> 100 µM
same,TGI,HCT-116 colon,> 72 µM and 34.1 µM
same,TGI,OVCAR-4 ovarian,> 100 µM
same,TGI,RXF 393 renal,7.62 µM
same,TGI,BT-549 breast,> 100 µM
same,GI50,CAKI-1 renal,0.404 µM and 1.04 µM
same,TGI,CAKI-1 renal,> 100 µM
same,GI50,CCRF-CEM leukemia,0.281 µM and 0.855 µM
same,TGI,CCRF-CEM leukemia,> 100 µM
same,TGI,DMS 273 small cell lung,> 100 µM
same,TGI,COLO 205 colon,0.784 µM and 2.83 µM
same,TGI,IGROV1 ovarian,> 100 µM
same,TGI,TK-10 renal,> 100 µM
same,GI50,ACHN renal,0.713 µM and 1.84 µM
same,TGI,ACHN renal,> 100 µM
same,TGI,KM12 colon,> 32.7 µM and 31.3 µM
same,TGI,MALME-3M melanoma,> 100 µM
same,TGI,U251 CNS,> 58.9 µM and 15.1 µM
same,GI50,SK-MEL-2 melanoma,0.328 µM
same,TGI,SK-MEL-2 melanoma,> 100 µM
same,GI50,KM20L2 colon,0.198 µM
same,TGI,NCI-H460 lung,> 32.7 µM and 37.1 µM
same,GI50,UACC-257 melanoma,0.338 µM and 1.16 µM
same,TGI,UACC-257 melanoma,> 100 µM
same,TGI,SK-MEL-28 melanoma,> 100 µM
same,TGI,PC-3 prostate,> 100 µM
same,TGI,MDA-N,2.55 µM
same,TGI,SNB-78 CNS,> 100 µM
same,TGI,MDA-MB-231 breast,> 100 µM
same,GI50,UO-31 renal,2.79 µM
same,TGI,UO-31 renal,> 100 µM
same,TGI,EKVX NSCLC,> 100 µM
same,TGI,SN12C renal,> 100 µM
same,TGI,HCC-2998 colon,2.73 µM and 3.31 µM
same,TGI,SW-620 colon,> 100 µM
same,TGI,786-0 renal,> 100 µM
same,TGI,NCI-H23 lung,31.4 µM
same,TGI,LOX IMVI melanoma,> 100 µM
same,TGI,SF-268 CNS,> 100 µM
same,TGI,SF-539 CNS,2.22 µM and 0.929 µM
same,TGI,T-47D breast,> 100 µM
same,TGI,A498 renal,> 70.6 µM and 17.3 µM
same,TGI,HOP-92 NSCLC,> 100 µM and 19.4 µM
same,TGI,HCT-15 colon,> 39.7 µM and 36.5 µM
same,TGI,OVCAR-3 ovarian,1.17 µM and 2.89 µM
same,TGI,MCF7 breast,> 100 µM
same,TGI,DLD-1 colon,> 100 µM
same,TGI,HS 578T breast,> 100 µM
same,TGI,SNB-19 CNS,> 100 µM
same,TGI,MOLT-4 leukemia,> 100 µM
same,TGI,HT29 colon,> 100 µM and 12.9 µM
same,GI50,OVCAR-5 ovarian,> 91.7 µM and 20.2 µM
same,TGI,OVCAR-5 ovarian,> 100 µM
same,TGI,HOP-62 NSCLC,> 74.1 µM
same,TGI,SK-OV-3 ovarian,> 100 µM and 22.5 µM
same,TGI,OVCAR-8 ovarian,> 100 µM
same,TGI,NCI/ADR-RES ovarian,> 17.1 µM
same,GI50,SK-MEL-5 melanoma,0.252 µM
same,TGI,SK-MEL-5 melanoma,32.7 µM and > 74.5 µM
same,GI50,NCI-H226 lung,0.414 µM and 4.04 µM
same,TGI,NCI-H226 lung,6.38 µM and 29.1 µM
same,TGI,DU-145 prostate,> 47.8 µM
same,TGI,SR leukemia,> 29 µM
same,TGI,RPMI-8226 leukemia,> 100 µM
